Experimental data: paper PMC6207618, “The GbsR Family of Transcriptional Regulators: Functional Characterization of the OpuAR Repressor” (Frontiers in Microbiology, 2018)
Entries after “also recorded” stand apart in the source; their conditions may differ.

How the values were obtained:
[1] = test system: B. infantis OpuA transporter; experiment: Osmostress protection growth assay, B. infantis opuA operon expressed in B. subtilis strain CAB2; format: cell-based, Bacillus infantis; details: for Osmostress protection (growth yield OD578): B. subtilis CAB2, SMM with 1.2 M NaCl, 1 mM osmostress protectant, 18 h, 37°C; for Substrate of / import via the B. infantis OpuA transporter: inferred from osmostress protection of B. subtilis CAB2, 1.2 M NaCl, 1 mM
Experimental: (§1) Bacterial strains were propagated in Luria–Bertani (LB) liquid media at 37°C or plated on LB agar plates. The B. infantis strain NRRL B-14911 was grown in MOPS-buffered basal medium [50 mM MOPS (pH 7.5), 50 mM MgSO4, 10 mM KCl, 10 mM CaCl2, 190 mM NH4Cl, 0.33 mM K2HPO4, 0.1 mM FeSO4] supplemented with 0.5% glucose (wt/vol) as a carbon source, 0.4% casamino acids (wt/vol), 5 ml l^-1 vitamin solution A (7.8 mg l^-1 biotin, 15.6 mg l^-1 nicotinic acid, and 15.6 mg l^-1 lipoic acid; pH adjusted to 7.5), and 5 ml l^-1 vitamin solution B (15.6 mg l^-1 pantothenic acid, 15.6 mg l^-1 pyridoxine-HCl, 15.6 mg l^-1 thiamine, 15.6 mg l^-1 p-aminobenzoic acid, and 0.32 mg l^-1 cobalamin) ([Gonzalez et al., 1997]). In main cultures used for osmostress protection assays, casamino acids were left out from the growth medium. The osmolarity of growth media was adjusted by the addition of NaCl from a 5 M NaCl stock solution. If desired, osmostress protectants were added to the medium of B. infantis NRRL B-14911 cultures at a final concentration of 1 mM. For growth experiments, liquid cultures of B. infantis NRRL B-14911 were grown in 100-ml Erlenmeyer flasks containing 20-ml of medium in a water bath set to 37°C with vigorous shaking (set to 220 rpm). Pre-cultures of strains were propagated to mid-exponential growth phase in basal medium (with 0.4% casamino acids) and were then used to inoculate fresh basal medium (without casamino acids) to an optical density at 578 nm (OD578) of 0.1. Liquid cultures of B. subtilis strains were grown at 37°C in Spizizen’s minimal medium (SMM) ([Harwood and Archibald, 1990]) with 0.5% glucose as carbon source and a solution of trace elements ([Harwood and Cutting, 1990]). L-Tryptophan (20 mg l^-1) and L-phenylalanine (18 mg l^-1) were added to SMM-derived growth media to satisfy the auxotrophic needs of the B. subtilis strain JH642 (trpC2 pheA1) ([Smith et al., 2014]) and its derivatives (Supplementary Table S1). Cultures (20-ml in 100-ml Erlenmeyer flasks) of B. subtilis strains were inoculated from exponentially growing pre-cultures in SMM to an OD578 of 0.1 and were incubated in a shaking water bath (set to 220 rpm) at 37°C. If needed, the osmolarity of the growth medium was increased by the addition of NaCl (from 5 M stock solutions prepared in H2O). Compatible solutes were filter sterilized and added to the growth medium of B. subtilis strains from 100 mM stock solutions to a final concentration of 1 mM unless otherwise explicitly stated in the text.
For the heterologous expression of the B. infantis NRRL B-14911 opuA operon (opuAA-opuAB-opuAC) in B. subtilis, a 3826-bp DNA fragment including the coding region of the opuA operon and the adjacent opuAR regulatory gene was generated by PCR using primers CA3-opuARA fwd and CA3-opuARA rev (Supplementary Table S2). […] Plasmid pX and its recombinant derivatives allow the stable insertion of genes into the B. subtilis chromosome as a single copy into the non-essential amyE locus via a double homologous recombination event via amyE sequences present on both the plasmid and the chromosome ([Kim et al., 1996]). Insertion of plasmid pX, or its recombinant derivatives, into the B. subtilis chromosome at the amyE gene can be selected for on agar plates containing the antibiotic chloramphenicol (final concentration: 5 μg ml^-1) and the subsequently scoring of the AmyE negative phenotype of the strains on LB plates containing 1% starch ([Harwood and Cutting, 1990]). Linearized plasmid DNA of pCA-opuARA was used to transform the B. subtilis chassis strain TMB118 [Δ(opuA::tet)3 Δ(opuC::spc)3 Δ(opuD::neo)2 Δ(opuB::erm)3] ([Teichmann et al., 2017]) in which only the proline-specific osmostress OpuE transporter ([von Blohn et al., 1997]) is present. The resulting strain was CAB2 (Supplementary Table S1). B. subtilis mutants carrying chromosomal deletions of the yvaV and opcR genes were constructed using long-flanking region PCR ([Kuwayama et al., 2002]).

[2] = test system: B. infantis NRRL B-14911; experiment: Osmostress protection assay of B. infantis; format: cell-based, Bacillus infantis; details: basal medium with 0.9 M NaCl, 1 mM osmostress protectant, 29 h, 37°C
Experimental: as §1
(A) Influence of increasing salinity on the growth of B. infantis NRRL B-14911. Cultures were grown in basal medium adjusted to the indicated salinity. Growth yields were measured after 30 h of incubation at 37°C. (B) Osmostress protection assays were carried out in basal medium supplemented with 0.9 M NaCl and in the presence of 1 mM of the indicated osmostress protectants. After 29 h of incubation at 37°C, growth yields were determined by measuring the OD578 of the cultures. (C) Substrate specificity of the B. infantis OpuA transporter. The opuA operon (and its flanking opuAR gene) of B. infantis NRRL B-14911 was heterologously expressed in a derivative of B. subtilis JH642, lacking all uptake system for compatible solutes except for the L-proline-specific OpuE transporter ([Hoffmann and Bremer, 2017]; [Teichmann et al., 2017]). Growth assays were conducted in minimal medium (SMM), either in the absence or presence of 1.2 M NaCl and 1 mM of the indicated osmostress protectants. After 18 h of incubation at 37°C, the optical densities (OD578) of the cultures were measured. The given values are the means and standard deviations of four independent biological replicates.
Next, we studied the possible osmostress protection of B. infantis NRRL B-14911 by various exogenously provided compatible solutes.

Structure (SMILES)	Osmostress protection (growth yield OD578) [1]	Osmostress protection (growth yield OD578) [2]	Substrate of / import via the B. infantis OpuA transporter [1]
CN(C)CC(=O)O [DMG, dimethlyglycine]	at a reduced level	moderate level of osmostress protection	
C[S+](C)CCC(=O)[O-] [DMSP, dimethylsulfoniopropionate]	protected	moderate level of osmostress protection	good substrate
C[N+](C)(C)CCO [choline]		not osmostress protective; also recorded: does not serve as an osmostress protectant	not imported; also recorded: not a substrate
C[N+](C)(C)CC(=O)[O-] [glycine betaine]	protected	substantial level of osmostress protection	major substrates
C[N+](C)(C)CCC(=O)[O-] [homobetaine]	protected	moderate level of osmostress protection	
C[N+]1(C)CCC[C@H]1C(=O)[O-] [proline betaine]	protected	substantial level of osmostress protection	major substrates
